Test results reported in US20250275993A1, “GLYCOSYLATION INHIBITORS AS THERAPEUTICS FOR STROKE” (The Regents of the University of California, priority 2022, published 2025).

What was measured:
[1] = test system: BCEC confluent monolayers; assay: BCEC scratch assay; assay type: cell-based, bovine; settings: 40 μM ManN or 50 ng/ml of VEGF; after 48 hours
Protocol: BCECs (passage 6-10) and HUVEC (passage 6-8) were used in this assay. Cells were grown until about 80% confluency in 6-well plates, washed twice with PBS and then starved in serum-free DMEM (low Glucose, Hyclone) for 5 hrs before making a “scratch” using 1 ml tip. Cell monolayers were briefly washed once with serum-free media, followed by various treatments in media containing 1% FBS. 48 hrs later, the assay was stopped by adding 2 ml 4% paraformaldehyde. 20 min later, fixed cells were stained with 1 ml Crystal Violet (Sigma). Plates were washed gently under the running tap water and air-dried before taking pictures. Images were acquired by ZEISS Discovery […] microscopy equipped with […] camera. Quantification of wound closure was done using AxioVision LE Rel.4.4 software. Six images were taken for each sample and six measurements (in pixel) were made on each image using AxioVision LE Re1.4.4 software.

VEGFR2 = VEGFR2 western blot in BCECs (molecular mass, phosphorylation, PNGase F); assay type: cell-based, bovine; settings: VEGF at 5 ng/ml for 24 hours
Protocol: Glycerol-free PNGase F was obtained from New England Biolabs (Ipswich, MA). Briefly, BCECs were lysed with NP-40 containing proteinase inhibitors (Thermo Scientific, Waltham, MA). Lysates were cleared at 4° C. at 5000 g for 25 mins. Total protein content was measured using Pierce BCA protein assay kit (Thermo Scientific). 20 mg of protein was mixed with 10× denaturing buffer and H2O to a total volume of […]. Glycoproteins were denatured at 100° C. for 10 mins, followed by adding Glycobuffer and PNGase F. The reaction was carried out at 37° C. for 2 hr.
Cells were allowed to reach-80% confluency in 12-well plates. […] At various time points, plates were taken out of the incubator and kept on ice. […] Lysates were collected and mixed with 4× Bolt LDS Sample Buffer (Novex, Carlsbad, CA) in the presence of Halt protease inhibitors and phosphatase inhibitor cocktail (ThermoFisher scientific, #NP0007). […] HUVECs (passage 6-8) were plated in EBM-2 basal medium (Lonza) with 0.2% FBS. Following overnight culture, cells were serum-starved in EBM-2 medium for 4 hrs prior to treatment with 50 ng/ml of VEGF165 or vehicle controls for various lengths. Equal amounts of protein lysates were analyzed by SDS-PAGE and blotted with the indicated antibodies. Proteins were transferred using Tris-Glycine buffer with 20% Methanol (Proteonomics grade) (Apex BioResearch Products). Membranes were first incubated with 5% milk in TBST, pH 7.6 (TEKnova, Hollister, CA), followed by blotting with primary and secondary antibodies. ECL anti-rabbit IgG, horseradish peroxidase linked whole antibody from donkey or sheep anti-mouse were obtained from GE Healthcare (UK limited). SuperSignal West Dura Extended Duration substrate was from ThermoFisher Scientific. In some cases, the same PVDF membranes were stripped by 8-min incubation in the Restore Plus Western Blot Stripping Buffer (ThermoFisher Scientific) to show total specific protein expression, followed by second stripping for (3-actin expression.

skin wound = assay: Skin wound healing model (splinted wound); assay type: in vivo, mouse; settings: topical 20 μg daily; mice; PBS group 81.5%
From the text: The model has been previously described. Briefly, C57BL/6 female mice (8-10 weeks old) were obtained from Jackson labs (Sacramento, CA). A fresh, full-thickness punch wound (4 mm diameter) using a punch (Acu Punch, Acuderm inc. Ft. Lauderdale, FL) splinted with a sterile neoprene ring (6-mm outer diameter and 4-mm inner diameter), fastened with 5-6 sutures (4-0 nylon) under the influence of Isoflurane was created on the back of the animal in a Class II Biological Safety Cabinet. For all surgical procedures, sterile technique was followed. Buprenorphine was given subcutaneously prior to awakening from anesthesia for anticipated pain. Mice were monitored until fully awake and were housed individually to minimize damage/biting/fighting to the surgical site. […] Treatment agents were prepared in PBS, sterile-filtered and 25 μl solution was applied daily directly to a wound bed for the first 4-5 days under the influence of Isoflurane, followed by daily observation. Wound closure was monitored by regular imaging and the wound area was quantified using ImageJ (National Institutes of Health, Bethesda, MD, USA). […] Epithelial gap was measured histomorphometrically using AxioVision LE Rel.4.4 software. […] Small vessels stained positive for CD31 were counted microscopically on 10 fields (20×) taken around the wound.

## VEGF
[1]
  closure of the scratched area vs control: significantly accelerated BCEC migration and/or proliferation
VEGFR2
  effect of VEGF alone on VEGFR2 molecular mass: no effect on molecular mass
Skin wound
  average closure of the wound on day 4: 66.9%
